Data reported in patent US7345042B2, “MCH antagonists for the treatment of obesity” (Schering Corporation, priority 2003, dated 2008).

target: T1, MCH receptor (Homo sapiens, UniProt Q99705); experiment: MCH Receptor Binding Assay ([125I]-MCH SPA, membranes from CHO cells expressing the MCH receptor); conditions: CHO cell membranes, [125I]-MCH, read-out: MCH Receptor Activity (Ki rating)
T1 construct: expressed in transfected cells; host or cells: CHO cells
Method: MCH Receptor Binding Assay:
Membranes from CHO cells expressing the MCH receptor were prepared by lysing cells with 5 mM HEPES for 15 min at 4 C. Cell lysates were centrifuged ([…], 15 min) and the pellet was resuspended in 5 mM HEPES. For each 96-well plate (Microlite, Dynex Technologies), 1 mg of cell membranes were incubated with 10 mg of wheat germ agglutinin SPA beads (Amersham) for 5 min at 4 C in a volume of 10 ml of binding buffer (25 mM HEPES, 10 mM MGCl2, 10 mM NaCl, 5 mM MnCl2, 0.1% BSA). The membrane/bead mixture was centrifuged (1500×g, 3.5 min), the supernatant was aspirated, and the pellet was resuspended in 10 ml binding buffer. The centrifugation, aspiration and resuspension were then repeated. The membrane/bead mixture (100 μl) was then added to 96-well plates containing 50 μl of 500 pM [^125I]-MCH (NEN) and […] of the appropriate concentration of compound (4× the desired final concentration). Nonspecific binding was determined by including 1 μM MCH in the binding reaction. The binding reaction was incubated at room temperature for 2 h. Plates were then analyzed in a TOPCOUNT microplate scintillation counter (Packard). Data was analyzed and Ki values were determined using GraphPad Prim.

T1 sequence (Q99705 whole entry): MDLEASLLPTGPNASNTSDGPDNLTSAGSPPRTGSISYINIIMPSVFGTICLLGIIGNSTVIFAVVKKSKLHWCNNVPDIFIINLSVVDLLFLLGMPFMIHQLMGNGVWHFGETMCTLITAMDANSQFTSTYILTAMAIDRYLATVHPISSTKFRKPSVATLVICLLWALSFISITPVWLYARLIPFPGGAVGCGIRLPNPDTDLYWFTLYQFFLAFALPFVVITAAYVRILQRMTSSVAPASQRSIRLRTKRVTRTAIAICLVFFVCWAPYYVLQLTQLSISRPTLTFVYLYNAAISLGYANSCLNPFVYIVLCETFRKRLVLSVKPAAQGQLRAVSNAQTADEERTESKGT

SMILES	Ki
CCCOc1ccsc1C(=O)N1CCC(N2CCN([C@@H](C)c3ccc(CCc4ccc5c(c4)OCO5)cc3)[C@H](C)C2)CC1 [Example 1]	0.01 to 0.015 µM
CCOc1ccsc1C(=O)N1CCC(N2CCN([C@@H](C)c3ccc(-c4cc(Cl)cc(Cl)c4)cc3)[C@H](C)C2)CC1 [Example 2]	0.01 to 0.015 µM
CCCOc1ccsc1C(=O)N1CCC(C)(N2CCN([C@@H](C)c3ccc(-c4cc(Cl)cc(Cl)c4)cc3)[C@H](C)C2)CC1 [Example 3]	0.006 to 0.01 µM
CCCOc1ccsc1C(=O)N1CCC(N2CCN([C@@H](C)c3ccc(CCc4ccc(Cl)cc4)cc3)[C@H](C)C2)CC1 [Example 4]	0.01 to 0.015 µM
C[C@@H]1CN(C2(C)CCN(C(=O)c3sccc3OCC3CC3)CC2)CCN1[C@@H](C)c1ccc(-c2cc(Cl)cc(Cl)c2)cc1 [Example 5]	0.006 to 0.01 µM
CCCOc1ccsc1C(=O)N1CCC(N2CCN([C@@H](C)c3ccc(-c4cc(Cl)cc(Cl)c4)cc3)[C@H](C)C2)CC1 [Example 6]	0.006 to 0.01 µM
CCCCOc1ccsc1C(=O)N1CCC(N2CCN([C@@H](C)c3ccc(-c4cc(Cl)cc(Cl)c4)cc3)[C@H](C)C2)CC1 [Example 7]	0.01 to 0.015 µM
CCCCOc1ccsc1C(=O)N1CCC(N2CCN([C@@H](C)c3ccc(-c4cc(Cl)cc(Cl)c4)cc3)[C@H](C)C2)CC1 [Example 8]	0.006 to 0.01 µM
CCCOc1ccsc1C(=O)N1CCC(N2CCN([C@@H](C)c3ccc(-c4ccc(F)c(Cl)c4)cc3)[C@H](C)C2)CC1 [Example 9]	0.01 to 0.015 µM
CCOc1ccsc1C(=O)N1CCC(N2CCN([C@@H](C)c3ccc(-c4ccc(Cl)s4)cc3)[C@H](C)C2)CC1 [Example 10]	> 0.015 µM
C[C@@H]1CN(C2CCN(C(=O)c3sccc3OCC3CC3)CC2)C[C@@H](C)N1Cc1ccc(-c2cc(Cl)cc(Cl)c2)cc1 [Example 11]	> 0.015 µM
C[C@@H]1CN(C2CCN(C(=O)c3sccc3OCC3CC3)CC2)CCN1[C@@H](C)c1ccc(-c2cc(Cl)cc(Cl)c2)cc1 [Example 12]	0.006 to 0.01 µM
CCOc1ccsc1C(=O)N1CCC(N2CCN([C@@H](C)c3ccc(CCc4ccc(C(F)(F)F)cc4)cc3)[C@H](C)C2)CC1 [Example 13]	0.006 to 0.01 µM
CCCOc1ccsc1C(=O)N1CCC(N2CCN([C@@H](C)c3ccc(CCc4ccc(C(F)(F)F)cc4)cc3)[C@H](C)C2)CC1 [Example 14]	0.006 to 0.01 µM
C[C@@H]1CN(C2(C)CCN(C(=O)c3sccc3OCC3CC3)CC2)CCN1[C@@H](C)c1ccc(-c2ccncc2)cc1 [Example 15]	0.006 to 0.01 µM
CCOc1ccsc1C(=O)N1CCC(N2CCN([C@@H](C)c3ccc(-c4cc(Cl)cc(Cl)c4)cc3)[C@H](C)C2)CC1C (stereo partly drawn) [Example 16]	0.006 to 0.01 µM
CCOc1ccsc1C(=O)N1CCC(N2CCN([C@@H](C)c3ccc(-c4cc(Cl)cc(Cl)c4)cc3)[C@H](C)C2)CC1C (stereo partly drawn) [Example 17]	> 0.015 µM
CCOc1ccsc1C(=O)N1CCC(N2C[C@@H](C)N([C@@H](C)c3ccc(-c4cc(Cl)cc(Cl)c4)cc3)[C@H](C)C2)CC1 [Example 18]	0.01 to 0.015 µM
CCCOc1cscc1C(=O)N1CCC(N2CCN([C@@H](C)c3ccc(-c4cc(Cl)cc(Cl)c4)cc3)[C@H](C)C2)CC1 [Example 19]	0.006 to 0.01 µM

same assay, conditions: unit inferred, read-out: Ki values

SMILES	Ki
CCOc1ccsc1C(=O)N1CCC(N2CCN([C@@H](C)c3ccc(-c4cc(Cl)cc(Cl)c4)cc3)[C@H](C)C2)CC1C (stereo partly drawn) [Example 16]	0.006 µM
CCCOc1cscc1C(=O)N1CCC(N2CCN([C@@H](C)c3ccc(-c4cc(Cl)cc(Cl)c4)cc3)[C@H](C)C2)CC1 [Example 20]	0.006 µM
